Assay results as given in the NIST ThermoML archive (doi:10.1016/j.jct.2015.04.029).

Columns and labels:
[1] = wn = mass fraction of the nth substance listed; conditions: for mass density: 100 kPa, Liquid, Vibrating tube method; for surface tension liquid-gas: Maximal bubble pressure
[2] = refractive index (Na D-line) (dimensionless); wn = mass fraction of the nth substance listed; conditions: 100 kPa, Liquid, Standard Abbe refractometry

CCC[n+]1ccn(C)c1.N[C@@H](CO)C(=O)[O-] [1-methyl-3-propylimidazolium L-serinate] + O
Conditions | mass density [kg/m3] | refractive index | surface tension liquid-gas [mN/m]
[1], 328.15 K, w2 = 0.00939 | 1162.83 | – | –
[1], 328.15 K, w2 = 0.0109 | 1162.87 | – | –
[1], 328.15 K, w2 = 0.0124 | 1162.91 | – | –
[1], 333.15 K, w2 = 0.00636 | 1159.67 | – | –
[1], 333.15 K, w2 = 0.00641 | – | – | 47.8
[1], 333.15 K, w2 = 0.00785 | 1159.7 | – | –
[1], 333.15 K, w2 = 0.00791 | – | – | 48.5
[1], 333.15 K, w2 = 0.00939 | 1159.74 | – | –
[1], 333.15 K, w2 = 0.00942 | – | – | 49.1
[1], 333.15 K, w2 = 0.0109 | 1159.79 | – | –
[1], 333.15 K, w2 = 0.01091 | – | – | 49.7
[1], 333.15 K, w2 = 0.0124 | 1159.83 | – | –
[1], 333.15 K, w2 = 0.01241 | – | – | 50.4
[1], 338.15 K, w2 = 0.00636 | 1156.58 | – | –
[1], 338.15 K, w2 = 0.00641 | – | – | 47.5
[1], 338.15 K, w2 = 0.00785 | 1156.62 | – | –
[1], 338.15 K, w2 = 0.00791 | – | – | 48.2
[1], 338.15 K, w2 = 0.00939 | 1156.65 | – | –
[1], 338.15 K, w2 = 0.00942 | – | – | 48.7
[1], 338.15 K, w2 = 0.0109 | 1156.69 | – | –
[1], 338.15 K, w2 = 0.01091 | – | – | 49.3
[1], 338.15 K, w2 = 0.0124 | 1156.73 | – | –
[1], 338.15 K, w2 = 0.01241 | – | – | 50
[2], 298.15 K, w2 = 0.00614 | – | 1.5158 | –
[2], 298.15 K, w2 = 0.00766 | – | 1.5154 | –
[2], 298.15 K, w2 = 0.00917 | – | 1.5149 | –
[2], 298.15 K, w2 = 0.01069 | – | 1.5144 | –
[2], 298.15 K, w2 = 0.01217 | – | 1.514 | –
[2], 303.15 K, w2 = 0.00614 | – | 1.5145 | –
[2], 303.15 K, w2 = 0.00766 | – | 1.514 | –
[2], 303.15 K, w2 = 0.00917 | – | 1.5135 | –
[2], 303.15 K, w2 = 0.01069 | – | 1.5131 | –
[2], 303.15 K, w2 = 0.01217 | – | 1.5125 | –
[2], 308.15 K, w2 = 0.00614 | – | 1.5131 | –
[2], 308.15 K, w2 = 0.00766 | – | 1.5126 | –
[2], 308.15 K, w2 = 0.00917 | – | 1.5119 | –
[2], 308.15 K, w2 = 0.01069 | – | 1.5115 | –
[2], 308.15 K, w2 = 0.01217 | – | 1.5109 | –
[2], 313.15 K, w2 = 0.00614 | – | 1.5118 | –
[2], 313.15 K, w2 = 0.00766 | – | 1.5113 | –
[2], 313.15 K, w2 = 0.00917 | – | 1.5106 | –
[2], 313.15 K, w2 = 0.01069 | – | 1.5102 | –
[2], 313.15 K, w2 = 0.01217 | – | 1.5095 | –
[2], 318.15 K, w2 = 0.00614 | – | 1.5106 | –
[2], 318.15 K, w2 = 0.00766 | – | 1.5099 | –
[2], 318.15 K, w2 = 0.00917 | – | 1.5092 | –
[2], 318.15 K, w2 = 0.01069 | – | 1.5087 | –
[2], 318.15 K, w2 = 0.01217 | – | 1.5081 | –
[2], 323.15 K, w2 = 0.00614 | – | 1.5094 | –
[2], 323.15 K, w2 = 0.00766 | – | 1.5086 | –
[2], 323.15 K, w2 = 0.00917 | – | 1.5078 | –
[2], 323.15 K, w2 = 0.01069 | – | 1.5072 | –
[2], 323.15 K, w2 = 0.01217 | – | 1.5065 | –
[2], 328.15 K, w2 = 0.00614 | – | 1.5081 | –
[2], 328.15 K, w2 = 0.00766 | – | 1.5072 | –
[2], 328.15 K, w2 = 0.00917 | – | 1.5063 | –
[2], 328.15 K, w2 = 0.01069 | – | 1.5056 | –
[2], 328.15 K, w2 = 0.01217 | – | 1.505 | –
[2], 333.15 K, w2 = 0.00614 | – | 1.5068 | –
[2], 333.15 K, w2 = 0.00766 | – | 1.5058 | –
[2], 333.15 K, w2 = 0.00917 | – | 1.5049 | –
[2], 333.15 K, w2 = 0.01069 | – | 1.5042 | –
[2], 333.15 K, w2 = 0.01217 | – | 1.5035 | –
[2], 338.15 K, w2 = 0.00614 | – | 1.5054 | –
[2], 338.15 K, w2 = 0.00766 | – | 1.5044 | –
[2], 338.15 K, w2 = 0.00917 | – | 1.5036 | –
[2], 338.15 K, w2 = 0.01069 | – | 1.5028 | –
[2], 338.15 K, w2 = 0.01217 | – | 1.5021 | –
